Reference: ChEMBL document CHEMBL4680117, “Discovery of 3,3'-pyrrolidinyl-spirooxindoles as cardioprotectant prohibitin ligands” (Eur J Med Chem, 2020)
Activity calls are given as the source filed them. The calls are words filed in the database; no cut-off is given here.

Key:
H9c2 [1] = assay: Cardioprotective activity against rat H9c2 cells assessed as inhibition of doxorubicin-induced cytotoxicity by measuring increase in cell suvival at 1 nM preincubated for 10 hrs followed by doxorubicin treatment and measured after 14 hrs by cQuant based analysis (reference value: 0%); type: functional; design: scale not given: the % may be the effect or the level left; conditions: time 24 hrs
H9c2 [2] = assay: Cardioprotective activity against rat H9c2 cells assessed as inhibition of doxorubicin-induced cytotoxicity by measuring increase in cell suvival at 0.3 nM preincubated for 10 hrs followed by doxorubicin treatment and measured after 14 hrs by cQuant based analysis (reference value: 0%); type: functional; design: scale not given: the % may be the effect or the level left; conditions: time 24 hrs
H9c2 [3] = assay: Cardioprotective activity against rat H9c2 cells assessed as inhibition of doxorubicin-induced ROS production at 1 nM preincubated for 14 hrs followed by loading with DCFDA dye for 45 mins and later exposed to doxorubicin for 3 hrs by DCF-DA probe based fluorescence assay (reference value: 0%); type: functional; conditions: H9c2, 17.75 h, time 1065 min
H9c2 [4] = assay: Cardioprotective activity against rat H9c2 cells assessed as inhibition of doxorubicin-induced ROS production at 0.3 nM preincubated for 14 hrs followed by loading with DCFDA dye for 45 mins and later exposed to doxorubicin for 3 hrs by DCF-DA probe based fluorescence assay (reference value: 0%); type: functional; conditions: H9c2, 17.75 h, time 1065 min
H9c2 [5] = assay: Cardioprotective activity against rat H9c2 cells assessed as inhibition of doxorubicin-induced cytotoxicity at 10 to 30 nM preincubated for 10 hrs followed by doxorubicin treatment and measured after 14 hrs by cQuant based analysis; type: functional, cell-based; conditions: dose 10-30 nM, time 24.0 hrs
H9c2 [6] = assay: Cardioprotective activity against rat H9c2 cells assessed as inhibition of doxorubicin-induced ROS production at 10 to 30 nM preincubated for 14 hrs followed by loading with DCFDA dye for 45 mins and later exposed to doxorubicin for 3 hrs by DCF-DA probe based fluorescence assay; type: functional, cell-based; conditions: dose 10-30 nM, time 1065.0 min
H9c2 [7] = assay: Binding affinity to PHB1 in rat H9c2 cells incubated for overnight by AffiGel 10 beads pull down based western blot analysis; type: cell-based
H9c2 [8] = assay: Binding affinity to PHB2 in rat H9c2 cells incubated for overnight by AffiGel 10 beads pull down based western blot analysis; type: cell-based
MCF7 = assay: Cytotoxicity against human MCF7 cells; type: functional, cell-based
H9c2 [9] = assay: Binding affinity to PHB1/2 in rat H9c2 cells assessed as induction of STAT3 phosphorylation at 10 nM incubated for 10 to 40 mins by western blot analysis; type: cell-based; conditions: time 10-40 min

SMILES | Activity (H9c2 [1]) [%] | Activity (H9c2 [2]) [%] | inhibition at 0.001 µM (H9c2 [3]) [%] | inhibition at 0.0003 µM (H9c2 [4]) [%] | Activity (H9c2 [5]) | Activity (H9c2 [6]) | Activity (H9c2 [7]) | Activity (H9c2 [8]) | EC50 (MCF7) [µM] | Activity (H9c2 [9])
CN1C(=O)[C@@]2(c3ccccc31)[C@H](c1ccccc1)N(C)C(=O)[C@@H]2O | 2.9 | 1.9 | 2.1 | 3.2 |  |  |  |  |  | 
CN1CC[C@@]2(C(=O)Nc3ccccc32)[C@@H]1c1ccccc1 | 7.6 | 5.4 | 15.6 | 9.4 |  |  |  |  |  | 
C=CCN1CC[C@@]2(C(=O)Nc3ccccc32)[C@@H]1c1ccccc1 | 11.6 | 4.6 | 20.6 | 12.7 | Active | Active |  |  |  | 
Cc1ccc2c(c1)NC(=O)C21CCNC1c1ccccc1 (stereo not given) | 2.6 | 0.3 | 3.2 | 0 |  |  |  |  |  | 
COC(=O)[C@H]1C[C@]2(C(=O)Nc3ccccc32)[C@@H](c2ccccc2)N1 | 6.4 | 4 | 9.4 | 3.1 |  |  |  |  |  | 
CCCCN1CC[C@@]2(C(=O)Nc3ccccc32)[C@@H]1c1ccccc1 | 5.7 | 0.9 | 12.5 | 6.2 |  |  |  |  |  | 
O=C(CCC(=O)ON1C(=O)CCC1=O)NCCNC(=O)CNCCOCCOCCOCCN1C(=O)C2(CCNC2c2ccccc2)c2ccccc21 (stereo not given) |  |  |  |  |  |  | Active | Active |  | 
CCN1CC[C@@]2(C(=O)Nc3ccccc32)[C@@H]1c1ccccc1 | 7.4 | 6 | 12.5 | 9.4 |  |  |  |  |  | 
O=C1Nc2ccccc2[C@]12CCNC2c1ccccc1 (stereo not given in full) | 11.3 | 7.7 | 18.8 | 12.5 |  |  |  |  | 3.5 | 
O=C(CCC(=O)ON1C(=O)CCC1=O)NCCNC(=O)CNCCOCCOCCOCCN1CCC2(C(=O)Nc3ccccc32)C1c1ccccc1 (stereo not given) |  |  |  |  |  |  | Active | Active |  | 
O=C1Nc2cc(Br)ccc2C12CCNC2c1ccccc1 (stereo not given) | 6.5 | 1.1 | 6.5 | 3.2 |  |  |  |  |  | 
COC(=O)[C@H]1C[C@@]2(C(=O)Nc3ccccc32)[C@H](c2ccccc2)N1 | 7.1 | 2.9 | 2.7 | 2.9 |  |  |  |  |  | 
CN(C)C(=O)CN1CC[C@@]2(C(=O)Nc3ccccc32)[C@@H]1c1ccccc1 | 0.2 | 1.4 | 9.4 | 0 |  |  |  |  |  | 
COc1cc(OC)c2c(c1)O[C@@]1(c3ccc(Br)cc3)[C@H](c3ccccc3)C[C@@H](O)[C@@]21O | 9.7 | 3.5 | 15.9 | 9.5 | Active | Active |  |  |  | 
O=C(CN1CC[C@@]2(C(=O)Nc3ccccc32)[C@@H]1c1ccccc1)N1CCOCC1 | 0.3 | 0.3 | 6.2 | 0 |  |  |  |  |  | 
O=C1Nc2ccccc2[C@]12CCN(C1CCCC1)[C@H]2c1ccccc1 | 0.2 | 2.6 | 12.5 | 0 |  |  |  |  |  | 
CC(C)N1CC[C@@]2(C(=O)Nc3ccccc32)[C@@H]1c1ccccc1 | 10.7 | 6.7 | 20.5 | 14.3 | Active | Active |  |  |  | Active
CCCN1CC[C@@]2(C(=O)Nc3ccccc32)[C@@H]1c1ccccc1 | 0.8 | 1.3 | 6.2 | 3.1 |  |  |  |  |  | 
O=C1N[C@@H](c2ccccc2)[C@]2(C(=O)Nc3ccccc32)[C@H]1O | 5.8 | 3 | 21.9 | 6.25 |  |  |  |  |  | 
